Assay results from the supplement of paper PMC11061612.

Legend:
Assay in all cases: combination Emax (second highest fraction inhibited in the dose matrix, 72 h); higher = more inhibition; extreme values may be limits of the assay
[1] = test system: YAPC (Pancreatic Carcinoma)
Outline: (§1)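 Cell lines in DMEM/F12 or RPMI with 10% FBS were plated in 1536-well plates, held 24 hours at 37°C, 5% CO2, then given two-drug dose matrices for 72 hours (DMSO typically 0.2%). Viability was read by CellTiter-Glo 2.0 luminescence and scaled as inhibition from 0 (vehicle wells) to 1 (blank wells). Combination Emax is the second-highest inhibition in the matrix; Bliss excess is observed combination effect minus expected EA + EB − EA·EB, EA and EB being single-agent effects.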

LOXIMVI (Melanoma) = test system: LOXIMVI (Melanoma)
Outline: as §1

[2] = test system: HuCCT1 (Biliary Tract Carcinoma)
Outline: as §1

[3] = test system: SW1710 (Bladder Carcinoma)
Outline: as §1

NCI-H2052 (Mesothelioma) = test system: NCI-H2052 (Mesothelioma)
Outline: as §1

[4] = test system: NCI-H1568 (Lung Adenocarcinoma)
Outline: as §1

[5] = test system: NCI-H524 (Small Cell Lung Carcinoma)
Outline: as §1

[6] = test system: OVCAR-5 (Ovarian Carcinoma)
Outline: as §1

NCI-H2722 (Mesothelioma) = test system: NCI-H2722 (Mesothelioma)
Outline: as §1

[7] = test system: ALL-PO (B-Lymphoblastic Leukemia)
Outline: as §1

[8] = test system: SNU-449 (Hepatocellular Carcinoma)
Outline: as §1

[9] = test system: SNU-16 (Gastric Carcinoma)
Outline: as §1

[10] = test system: LNZTA3WT4 (Low Grade Glioma)
Outline: as §1

[11] = test system: TGBC1TKB (Biliary Tract Carcinoma)
Outline: as §1

[12] = test system: BE-13 (T-Lymphoblastic Leukemia)
Outline: as §1

[13] = test system: OV-56 (Ovarian Carcinoma)
Outline: as §1

[14] = test system: WSU-NHL (B-Cell Non-Hodgkin's Lymphoma)
Outline: as §1

[15] = test system: HuH-7 (Hepatocellular Carcinoma)
Outline: as §1

A673 (Ewing's Sarcoma) = test system: A673 (Ewing's Sarcoma)
Outline: as §1

[16] = test system: ESS-1 (Other Solid Carcinomas)
Outline: as §1

Structure (SMILES)	combination Emax [1]	combination Emax (LOXIMVI (Melanoma))	combination Emax [2]	combination Emax [3]	combination Emax (NCI-H2052 (Mesothelioma))	combination Emax [4]	combination Emax [5]	combination Emax [6]	combination Emax (NCI-H2722 (Mesothelioma))	combination Emax [7]	combination Emax [8]	combination Emax [9]	combination Emax [10]	combination Emax [11]	combination Emax [12]	combination Emax [13]	combination Emax [14]	combination Emax [15]	combination Emax (A673 (Ewing's Sarcoma))	combination Emax [16]
Cn1cnc2c(F)c(Nc3ccc(Br)cc3Cl)c(C(=O)NOCCO)cc21 [Selumetinib] + CCN(CCO)CCCOc1ccc2c(Nc3cc(CC(=O)Nc4cccc(F)c4)[nH]n3)ncnc2c1 [AZD2811] (first compound max 10 µM, 7x7, partner max 1 µM)	0.212	0.683	0.525	0.214	0.232	0.207	0.955	0.507	0.186	1	0.221	0.561	0.226	0.211	0.735	0.116	0.642	0.293	0.658	0.462
CC(=O)c1c(C)c2cnc(Nc3ccc(N4CCNCC4)cn3)nc2n(C2CCCC2)c1=O [Palbociclib] + Cn1cnc2c(F)c(Nc3ccc(Br)cc3Cl)c(C(=O)NOCCO)cc21 [Selumetinib] (first compound max 10 µM, 7x7, partner max 10 µM)	0.379	0.744	0.556	0.339	0.189	0.206	0.739	0.587	0.113	0.697	0.338	0.771	0.333	0.167	0.691	0.141	0.886	0.344	0.177	0.283
Cc1c2c(nn1C)CSCc1cc(n(C)n1)CSc1cc(c3ccccc3c1)OCCCc1c(C(=O)O)n(C)c3c-2c(Cl)ccc13 [AZD5991] + C[C@@H]1COCCN1C2=NC(=NC(=C2)C3(CC3)[S@](=N)(=O)C)C4=C5C=CNC5=NC=C4 [AZD6738] (first compound max 1 µM, 7x7, partner max 10 µM)	0.327	0.742	0.756	0.436	0.338	0.502	0.854	0.645	0.401	1	0.198	1	0.761	0.403	–	0.558	0.994	0.279	0.823	0.958
CN(C)CCCOc1ccc(-c2ccc3ncc4c(c3c2)n(C2CCOCC2)c(=O)n4C)cn1 [AZD0156] + O=C(c1cc(Cc2n[nH]c(=O)c3ccccc23)ccc1F)N1CCN(C(=O)C2CC2)CC1 [Olaparib] (first compound max 3 µM, partner max 3 µM)	0.283	0.377	0.202	0.0777	0.251	0.233	0.496	0.45	0.181	0.505	0.0695	–	0.206	0.157	0.428	0.0996	0.879	0.16	0.653	0.489
CS(=O)(=O)CCNCc1ccc(-c2ccc3ncnc(Nc4ccc(OCc5cccc(F)c5)c(Cl)c4)c3c2)o1 [Lapatinib] + NC1(c2ccc(-c3nc4ccn5c(=O)[nH]nc5c4cc3-c3ccccc3)cc2)CCC1 [MK-2206] (first compound max 10 µM, 7x7, partner max 10 µM)	0.356	0.967	0.893	0.602	0.515	–	0.941	0.787	–	–	0.82	0.964	0.911	0.623	0.971	–	0.969	–	0.363	0.96
CCc1c2c(nc3ccc(O)cc13)-c1cc3c(c(=O)n1C2)COC(=O)[C@]3(O)CC [SN-38] + O=C(c1cc(Cc2n[nH]c(=O)c3ccccc23)ccc1F)N1CCN(C(=O)C2CC2)CC1 [Olaparib] (first compound max 0.3 µM, 7x7, partner max 10 µM)	0.646	0.784	0.662	0.327	–	–	0.783	0.637	0.38	0.981	0.175	0.848	0.464	0.493	0.965	–	1	–	1	1
Cc1c2c(nn1C)CSCc1cc(n(C)n1)CSc1cc(c3ccccc3c1)OCCCc1c(C(=O)O)n(C)c3c-2c(Cl)ccc13 [AZD5991] + Nc1ccn([C@@H]2O[C@H](CO)[C@@H](O)C2(F)F)c(=O)n1 [Gemcitabine] (first compound max 1 µM, 7x7, partner max 0.3 µM)	0.575	0.835	0.506	0.397	–	–	0.788	0.422	–	–	0.316	1	0.633	0.255	0.923	–	0.967	–	0.893	0.961
CN(CCO)CC[C@H](CSc1ccccc1)Nc1ccc(S(=O)(=O)NC(=O)c2ccc(N3CCC([C@@H](O)c4ccccc4-c4ccc(Cl)cc4)CC3)cc2)cc1S(=O)(=O)C(F)(F)F [AZD4320] + CS(=O)(=O)CCNCc1ccc(-c2ccc3ncnc(Nc4ccc(OCc5cccc(F)c5)c(Cl)c4)c3c2)o1 [Lapatinib] (first compound max 1 µM, 7x7, partner max 10 µM)	0.257	0.64	0.615	0.553	–	–	0.968	0.896	–	–	0.694	0.941	0.398	0.58	1	–	0.945	–	0.973	0.973
C[C@@H](Oc1cc(-c2cnn(C3CCNCC3)c2)cnc1N)c1c(Cl)ccc(F)c1Cl [Crizotinib] + CC1=C(C(=CC=C1)Cl)NC(=O)C2=CN=C(S2)NC3=CC(=NC(=N3)C)N4CCN(CC4)CCO [Dasatinib] (first compound max 10 µM, 7x7, partner max 2 µM)	0.694	0.972	0.82	0.944	–	–	0.977	0.826	–	–	0.831	0.909	0.666	0.707	0.943	–	0.994	–	0.681	0.987
CS(=O)(=O)CCNCc1ccc(-c2ccc3ncnc(Nc4ccc(OCc5cccc(F)c5)c(Cl)c4)c3c2)o1 [Lapatinib] + Cn1cnc2c(F)c(Nc3ccc(Br)cc3Cl)c(C(=O)NOCCO)cc21 [Selumetinib] (first compound max 10 µM, 7x7, partner max 10 µM)	0.386	0.717	0.801	0.317	–	–	0.305	0.655	–	–	0.514	0.557	0.369	0.288	0.887	–	0.788	–	0.343	0.705
CC1(C)CCC(CN2CCN(c3ccc(C(=O)NS(=O)(=O)c4ccc(NCC5CCOCC5)c([N+](=O)[O-])c4)c(Oc4cnc5[nH]ccc5c4)c3)CC2)=C(c2ccc(Cl)cc2)C1 [Venetoclax] + CS(=O)(=O)CCNCc1ccc(-c2ccc3ncnc(Nc4ccc(OCc5cccc(F)c5)c(Cl)c4)c3c2)o1 [Lapatinib] (first compound max 1 µM, 7x7, partner max 10 µM)	0.129	0.426	0.397	0.18	–	–	0.108	0.308	–	–	0.445	0.399	0.208	0.134	0.854	–	0.798	–	0.207	0.669
C=CCn1c(=O)c2cnc(Nc3ccc(N4CCN(C)CC4)cc3)nc2n1-c1cccc(C(C)(C)O)n1 [AZD1775] + C1CN(CCC1(C(=O)N[C@@H](CCO)C2=CC=C(C=C2)Cl)N)C3=NC=NC4=C3C=CN4 [Capivasertib] (first compound max 3 µM, partner max 3 µM)	0.591	0.793	0.741	0.475	0.518	0.765	0.847	0.572	0.262	0.754	0.271	–	0.804	0.434	0.968	0.389	1	0.471	0.526	0.949
O=C(c1cc(Cc2n[nH]c(=O)c3ccccc23)ccc1F)N1CCN(C(=O)C2CC2)CC1 [Olaparib] + COc1nnc2ccc(N3CCC(c4ccc(OCCN5CCN(C)C(=O)[C@H]5C)cc4)CC3)nn12 [AZD5153] (first compound max 10 µM, 7x7, partner max 1 µM)	0.267	0.864	0.456	0.379	–	–	0.542	0.449	–	–	0.208	0.769	0.357	0.24	0.648	–	0.929	–	0.578	0.695
Cc1c2c(nn1C)CSCc1cc(n(C)n1)CSc1cc(c3ccccc3c1)OCCCc1c(C(=O)O)n(C)c3c-2c(Cl)ccc13 [AZD5991] + CC(=O)O[C@H]1C(=O)[C@@]2(C)[C@H]([C@H](OC(=O)c3ccccc3)[C@]3(O)C[C@H](OC(=O)[C@H](O)[C@@H](NC(=O)c4ccccc4)c4ccccc4)C(C)=C1C3(C)C)[C@]1(OC(C)=O)CO[C@@H]1C[C@@H]2O [Paclitaxel] (first compound max 1 µM, 7x7, partner max 3 µM)	0.315	0.755	0.549	0.836	–	–	0.929	0.707	–	–	0.325	1	0.899	0.412	0.852	–	0.998	–	0.95	1
